What was measured:
Human plasma kallikrein = target: T1, Human plasma kallikrein (Homo sapiens, UniProt P03952); assay: Plasma Kallikrein Assay; format: biochemical; settings: purified Human plasma kallikrein 0.5 nM, substrate Acetyl-K-P-R-AFC, pH 7.4
T1 construct: yields a heavy chain (371 amino acids) and a light chain (248 amino acids); purchased Enzyme Research Laboratories

human factor XIa = human factor XIa (Homo sapiens, UniProt P03951); assay: Factor XIa Assay; format: biochemical; settings: human factor XIa 0.04 nM, substrate GPR-AFC, 30 min pre-incubation at 25° C., pH 7.4; read-out: FXIa IC50
Chain of human factor XIa (P03951 388-625 limits assumed): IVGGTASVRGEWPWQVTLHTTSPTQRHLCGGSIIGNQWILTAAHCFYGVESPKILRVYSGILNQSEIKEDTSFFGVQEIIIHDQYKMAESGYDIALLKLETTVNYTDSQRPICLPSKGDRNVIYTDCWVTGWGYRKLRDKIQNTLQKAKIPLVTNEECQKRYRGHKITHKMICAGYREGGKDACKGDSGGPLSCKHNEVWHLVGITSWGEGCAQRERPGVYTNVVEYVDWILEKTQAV
Chain of human factor XIa (P03951 19-387 partner limits assumed): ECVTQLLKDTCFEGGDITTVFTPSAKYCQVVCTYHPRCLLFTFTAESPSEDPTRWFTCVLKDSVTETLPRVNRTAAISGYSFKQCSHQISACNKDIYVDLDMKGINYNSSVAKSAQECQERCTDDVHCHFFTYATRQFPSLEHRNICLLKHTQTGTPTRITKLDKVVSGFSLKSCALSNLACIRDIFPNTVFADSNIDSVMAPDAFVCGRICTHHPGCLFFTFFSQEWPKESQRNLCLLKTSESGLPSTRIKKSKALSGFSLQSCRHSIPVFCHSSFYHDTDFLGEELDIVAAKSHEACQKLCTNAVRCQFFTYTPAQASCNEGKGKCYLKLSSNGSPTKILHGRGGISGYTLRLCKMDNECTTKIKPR

T1 sequence (P03952 391-638 limits assumed): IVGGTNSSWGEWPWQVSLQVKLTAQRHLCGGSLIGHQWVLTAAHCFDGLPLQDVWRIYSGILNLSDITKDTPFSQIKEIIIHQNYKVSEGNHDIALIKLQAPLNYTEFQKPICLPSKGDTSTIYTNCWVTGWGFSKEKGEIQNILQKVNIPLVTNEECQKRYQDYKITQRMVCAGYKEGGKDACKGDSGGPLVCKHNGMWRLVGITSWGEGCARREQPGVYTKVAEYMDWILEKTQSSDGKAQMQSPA
T1 sequence (P03952 20-390 partner limits assumed): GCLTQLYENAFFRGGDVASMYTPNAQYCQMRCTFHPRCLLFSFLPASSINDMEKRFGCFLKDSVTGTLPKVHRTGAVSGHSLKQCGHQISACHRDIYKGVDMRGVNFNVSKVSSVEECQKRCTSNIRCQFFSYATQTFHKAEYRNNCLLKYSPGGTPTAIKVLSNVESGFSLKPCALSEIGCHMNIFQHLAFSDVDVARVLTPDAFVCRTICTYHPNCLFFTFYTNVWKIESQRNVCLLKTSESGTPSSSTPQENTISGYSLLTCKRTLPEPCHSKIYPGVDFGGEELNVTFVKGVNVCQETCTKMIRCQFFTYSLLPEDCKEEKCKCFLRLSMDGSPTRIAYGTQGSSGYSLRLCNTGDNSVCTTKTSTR

Structure (SMILES) | IC50 (Human plasma kallikrein) | IC50 (human factor XIa)
CC(c1cnc(N2CCC2)cn1)n1cc(NC(=O)c2cncc(-c3c(C(F)F)ccc(Cl)c3F)n2)cn1 (single isomer, unassigned) [Example 29, (S or R)-N-(1-(1-(5-(azetidin-1-yl)pyrazin-2-yl)ethyl)-1H-pyrazol-4-yl)-6-(3-chloro-6-(difluoromethyl)-2-fluorophenyl)pyrazine-2-carboxamide] | 20.7 nM | 1.77 µM
O=C(Nc1cnn(Cc2cnc(N3CCC3)nc2C(F)F)c1)c1cncc(-c2c(C(F)F)ccc(Cl)c2F)n1 [Example 19, N-(1-((2-(Azetidin-1-yl)-4-(difluoromethyl)pyrimidin-5-yl)methyl)-1H-pyrazol-4-yl)-6-(3-chloro-6-(difluoromethyl)-2-fluorophenyl)pyrazine-2-carboxamide] | 14.6 nM | 4.63 µM
O=C(Nc1cnn(Cc2cnc(N3CC4CC4C3CO)nc2)c1)c1cncc(-c2c(C(F)F)ccc(Cl)c2F)n1 (single isomer, unassigned) [Example 79, 6-(3-Chloro-6-(difluoromethyl)-2-fluorophenyl)-N-(1-((2-((1R,2S,5S or 1S,2R,5R)-2-(hydroxymethyl)-3-azabicyclo[3.1.0]hexan-3-yl)pyrimidin-5-yl)methyl)-1H-pyrazol-4-yl)pyrazine-2-carboxamide] | 5.9 nM | 2.86 µM

Further lines, results first:

IC50 (Human plasma kallikrein) | IC50 (human factor XIa) | Structure (SMILES)
27.3 nM | 3.33 µM | O=C(Nc1cnn(Cc2ccc(N3CCC(O)C3)nc2)c1)c1cncc(-c2c(C(F)F)ccc(Cl)c2F)n1 (stereo not shown) [Example 123, 6-(3-Chloro-6-(difluoromethyl)-2-fluorophenyl)-N-(1-((6-(3-hydroxypyrrolidin-1-yl)pyridin-3-yl)methyl)-1H-pyrazol-4-yl)pyrazine-2-carboxamide]
0.7 nM | 9.43 µM | CC(c1cnc(N2CC[C@H]2CN2CCC(O)CC2)nc1)n1cc(NC(=O)c2cncc(-c3c(C(F)F)ccc(Cl)c3F)n2)cn1 (stereo partly drawn) [Example 179, 6-(3-Chloro-6-(difluoromethyl)-2-fluorophenyl)-N-(1-(1-(2-((S)-2-((4-hydroxypiperidin-1-yl)methyl)azetidin-1-yl)pyrimidin-5-yl)ethyl)-1H-pyrazol-4-yl)pyrazine-2-carboxamide]

— patent publication US20230416227A1, “PLASMA KALLIKREIN INHIBITORS” (Merck Sharp & Dohme LLC, priority 2020, published 2023)
